{"source": "patent US8129137B2", "about": "“Two-photon probe for real-time monitoring of intracellular free zinc ions, method for preparing the probe and method for real-time monitoring of intracellular free zinc ions using the probe” (Korea University Industrial & Academic Collaboration …, priority 2008, dated 2012)", "key": {"[1]": {"assay": "Two-photon cross section and action spectra", "assay_type": "physicochemical", "conditions": "in methanol in the presence of Zn2+; 780 nm", "procedure": "The two-photon cross section (δ) was determined by using femto second (fs) fluorescence measurement technique.\nThe intensities of the two-photon induced fluorescence spectra of the reference and the sample probe were measured, and the two-photon cross section of the sample probe was calculated according to Equation 3:\n[formula] wherein the subscripts s and r represent sample and reference molecules, respectively, δ represents the two-photon cross section, S represents the strength of signals collected by a CCD detector, φ represents the fluorescence quantum efficiency, φrepresents the total fluorescence collection efficiency of an experimental system, c represents the number density of the molecules within each of the solutions, and δr represents the two-photon cross section of reference molecules.\nReferring to FIG. 9, the two-photon action spectra of the Zn^2+ complexes with AZn1 and AZn2 in the buffer solutions indicated a φδ value of ˜90 GM at 780 nm, 4˜24-fold larger than those of TSQ and FluZin-3."}, "[2]": {"assay": "Fluorescence quantum yield (Coumarin 307 as reference)", "assay_type": "physicochemical", "conditions": "in methanol in the presence of Zn2+", "procedure": "The absorption spectra of the two-photon probes were recorded on a Hewlett-Packard 8453 diode array spectrophotometer, and the fluorescence spectra of the two-photon probes were obtained with an Amico-Bowman series 2 luminescence spectrometer with a 1 cm standard quartz cell. The fluorescence quantum yields of the two-photon probes were determined by using Coumarin 307 as the reference by the literature method (J. N. Demas, G. A. Crosby, J. Phys. Chem. 1971, 75, 991-1024.). FIGS. 2a and 2b are one-photon absorption and emission spectra of the two-photon probe AZn1, respectively, and FIGS. 2c and 2d are one-photon absorption and emission spectra of the two-photon probe AZn2, respectively."}}, "data": [{"molecule": "COc1cc(NS(=O)(=O)c2ccc(C)cc2)c2ncccc2c1", "note": "[TSQ, reference compound]", "values": [{"measurement": "δ, peak two-photon cross section", "setting": "[1]", "result": 10, "unit": "GM"}, {"measurement": "φδ, two-photon action cross section", "setting": "[1]", "result": 4, "unit": "GM"}, {"measurement": "fluorescence quantum yield φ", "setting": "[2]", "result": 0.43}]}]}
